Results taken from patent US20170131285A1, “METHODS AND COMPOSITIONS FOR DIAGNOSING, MONITORING AND TREATING CANCER” (INSERM (Institut National de la Sante et de la Recherche …, priority 2014, published 2017).

Experiments:
HCT116 cells = test: HSP70-exosomes release from HCT116 cells treated with chemotherapy drugs (BLI, flow cytometry); type: cell-based, human; details: for amount of HSP70-exosomes released, dose-response / number of exosomes at higher doses: HCT116, 48 h; for amount of HSP70-exosomes released, dose-response: concentrations inducing a relatively low amount of cell death, flow cytometry; for number of exosomes at higher doses: doses inducing more than 40% cell death; for amount of HSP70-exosomes released, extent of increase: HCT116, toxic equivalent concentrations: oxaliplatin 5 μM, 5FU 3 μM, paclitaxel 50 nM, gemcitabin 10 μM, doxorubicin 2.5 μM, BLI
Protocol: FIG. 7: Effect of chemotherapy drugs on HSP70-exosomes release. A) Association curves of HSP70-exosomes isolated from the supernatant of HCT116 cells treated or not with oxaliplatin (5 μM), 5FU (3 μM), paclitaxel (50 nM), gemcitabin (10 μM) and doxorubicin ([…]). For the BLI, biotinylated A8 was immobilized on streptavidin sensor tips, n=3. B-C) HCT116 cells were treated with 5FU (3, 12, 24 and 36 μM) or oxaliplatin (5, 20, 40 and 60 μM) or doxorubicin (2.5, 10, and 20 μM) during 48 h. B) concentration of HSP70-exosomes released was measured by flow cytometry. C) measured apoptosis of HCT116 (7AAD and FITC-Annexin V).
Cells were cultured in medium depleted from serum-derived exosomes. Supernatants were collected from cell lines and sequentially centrifuged at 300 g for 10 minutes (4° C.) and at 2,000 g for 10 minutes. Then, exosomes were ultracentrifugated at 100,000 g for 70 minutes and washed in PBS. The same protocol was used for urines and blood samples. To evaluate exosome concentrations, we used a Nano Sight LM10 instrument (NanoSight, Amesbury, UK).
Protein-protein interaction experiments were conducted with an Octet Red instrument (ForteBio, USA). The ligand (A8 or TLR2) was biotinylated using EZ-Link NHS-PEG4-biotin (2 nM, 30 min, RT, Thermo Fisher Scientific, Germany) and immobilized on streptavidin sensors (96-well plate black, ForteBio, USA). Functionalized sensors were incubated in PBS (10 min) then incubated with exosomes (10^6, from cancer cells lines or normal cells or mice blood or human urine, for 120 or 600 seconds) or HSP70 (concentration range from 2.5 μM to 0.52 nM) or cmHSP70 (1/1,000). All sensorgrams were corrected for baseline drift by subtracting a control sensor exposed to running buffer only. Each KD was determined with a 1:1 stoichiometry model using a global fit with Rmax unlinked by sensor (ForteBio, Data analysis software version 7.1.0.89).
Exosomes from cancer cells lines or normal cells were bound to surfactant-free white aldehyde-sulfate latex beads ([…], Invitrogen) and concentrated at 1·10^4 beads/μL. Exosomes (30 μg) were incubated with the beads suspension for 15 min and then for 1 h at room temperature (RT) in final volume of 1 mL PBS. Beads were saturated with glycine (100 mM) for 30 minutes at RT and washed twice with PBS supplemented by 3% of FBS. Expression of membranar HSP70 on cells (normal and cancerous) was determined by flow cytometry using cmHSP70 antibody. MSC2 and HCT116 cell death was measured by PS exposure, cells stained with 7AAD and FITC-Annexin V conjugate. All analyses were performed on a LSRII flow cytometer (BD Bioscience).

B16F10 tumors = test: B16F10 melanoma tumor model in C57/BL6 mice; type: in vivo, mouse; details: B16F10 tumor-bearing C57/BL6 mice, day 18; A0 or A8 3 mg/kg i.p. every two days; cisplatin single i.p. dose; 6 animals per group
Protocol: (§1) FIG. 5: A8 anti-tumor effect in mice is associated to MDSC and an immune anti-tumor response. (A) Mice were sc injected with B16F10 cells (5×10^4). On day 4, when tumor size was about 0.9 mm^3, animals were treated every two days until the end of the experiment with A0 or A8 (3 mg/kg dissolved in PBS, i.p injection). On day 5, half the animals were treated with cisplatin as a single dose (CDDP, i.p injection, 5 mg/kg). At day 18, the percentage of Gr1^+ CD11b^+ cells in the spleen collected from the different groups of mice was analyzed by flow cytometry (6 animals per group). As a MDCS negative control (Ctl) we used animals with no tumor cells injected. Right panels, a representative immunoblot of pSTAT3 in the MDSC (Gr1^+ CD11b^+ cells) isolated from the spleen of control animals (A0/PBS) or A8 and CDDP-treated animals (A8/CDDP). 14-3-3 is used as a loading control. (B) Analysis of tumor growth in the animals described above. Tumor size was measured every two days (6 animals per group). The white symbols represent the tumors from animals treated with cisplatin. (C) HSP70-exosomes isolated from B16F10 cells treated or not with cisplatin (CDDP, 25 μM) were determined by flow cytometry. Data represent the percentage of MFI+/−SD (n=3); *, p<0.05. (D) Association curves of HSP70-exosomes present in tumor-bearing mice sera treated or not with cisplatin (5 mg/kg). For the biolayer interferometry, biotinylated A8 was immobilized on streptavidin sensor tips. Curves represent mean values of triplicate measurements for each concentration (for each curve, the blood of 5 mice per group was pooled).
Exponentially growing B16F10 were harvested and resuspended in an RPMI medium without FBS. In vivo studies were performed in wild-type C57/BL6 mice (Charles River). B16F10 cells (5·10^4) were injected s.c. into the right flank Tumor volumes were evaluated every 2 days. Mice were treated with a control peptide aptamer A0 (3 mg/kg) or the HSP70 aptamer A8 (3 mg/kg) and half mice were treated with cisplatin (CDDP, […]). The animals were treated according to the guidelines of the Ministère de la Recherche et de la Technologie, France. All experiments were approved by the Comité d'Ethique de l'Université de Bourgogne.
MDSC cell isolation and analysis: Single-cell suspensions were prepared from spleens, and red cells were removed using ammonium chloride lysis buffer. Gr-1+ cells were isolated from spleens of different group of tumor-bearing mice or naive mice by labeling the cells with PE Cy7 Ab to Gr-1, then using magnetic PE Cy7 beads and LS MACS columns (Miltenyi Biotec). For extracellular staining of immune markers, single-cell suspensions were prepared. We incubated 1·10^6 freshly prepared cells with fluorochrome-coupled CD11b antibody (eBioscience). All events were acquired by a BD Bioscience LSR-II device and analyzed with FlowJo (Tree Star).
Animals were killed 18 days after cell injection. The site of tumor cell injection was resected and snap-frozen in liquid nitrogen. An immunohistochemical study of tumor-infiltrating inflammatory cells was performed on acetone-fixed 5 μm cryostat sections.
Next, we tested whether A8 was also able to block the immunosuppressive effect of MDSC in an in vivo cancer model. We performed subcutaneous injection at day 0 of B16F10 cells or media as a control in C57/BL6 mice. When tumor size reached about 0.9 mm^3 ([…]), mice were treated i.p. with a control peptide aptamer (A0) or A8 every two days until the end of the experiment. When indicated, half of the animals received cisplatin (CDDP, […], i.p.) as a single dose. Tumor growth was measured every two days. After 18 days, we analyzed the percentage of MDSC present in mice spleen (6 animals per group) by FACS using the specific markers Gr1^+ and CD11b^+ (FIG. 5A). […]

B16F10 cells = test: HSP70-exosomes released by cultured B16F10 cells, flow cytometry; type: cell-based, mouse; details: cisplatin 25 μM, FACS
Protocol: as §1, with “The white symbols represent the tumors from animals treated with cisplatin.” left out, “Data represent the percentage of MFI+/−SD (n=3); *, p<0.05. (D) Association curves of HSP70-exosomes present in tumor-bearing mice sera treated or not with cisplatin (5 mg/kg). For the biolayer interferometry, biotinylated A8 was immobilized on streptavidin sensor tips. Curves represent mean values of triplicate measurements for each concentration (for each curve, the blood of 5 mice per group was pooled).” left out
B16F10, CT26, HCT116 and SW480 cells were cultured for 48 h or 24 h with cisplatin (CDDP) treatment in medium depleted from serum-derived exosomes by overnight centrifugation at 100,000 g. […] The concentration of exosomal proteins was quantified by Lowry assay (Biorad). […]

[1] = tested on: B16F10 tumor-bearing mice; test: HSP70-exosomes in blood of tumor-bearing mice, A8-BLI protocol; type: in vivo, mouse; details: cisplatin 5 mg/kg, BLI with A8 ligand
MSC2 cells = test: pSTAT3 western blot in MSC2 cells incubated with tumor-derived exosomes; type: cell-based; details: exosomes from CT26, B16F10, HCT116, SW480; 4 h and 6 h; aptamer 16 μM
Protocol: FIG. 4: A8 blocks the activation and proliferation of MSC2 cells. (A) IL-6 concentration was determined by ELISA in the supernatant of MSC2 cells incubated or not for 24 h with exosomes (from B16F10) in the presence or absence of A8. *, p<0.05, (n=3). (B) A representative image of a western blot showing the kinetics of STAT3 phosphorylation in MCS2 cells incubated or not with exosomes isolated from B16F10, CT26 or HCT116 cells together with a peptide control (TDE) or A8 (TDE/A8). 14-3-3 is used as a loading control. In the right panels, the amount of pSTAT3 was quantified by densitometric analysis. *, p<0.05, n=4.
Five millions of MSC2 cells were incubated with or without exosomes isolated from B16F10, CT26, HCT116 or SW480 cells in the presence or absence of A8 during 4 h or 6 h. Cells were isolated, lysed and analysed for pSTAT3 by western blotting.
MSC2 (2·10^6) or MDSC (2·10^6) were incubated alone or with exosomes (from B16F10, CT26, HCT116, SW480) in the absence or presence of A8 or A17 (16 μM) during 6 hours (RPMI 10% FBS, 5% of CO2 at 37° C.). Every 2 hours, […] cells were sampled and centrifugated 5 min at 300 g. Cells were lysed in lysis buffer (50 mM HEPES (pH 7.6), 150 mM NaCl, 5 mM EDTA, and 0.1% NP40 and anti-phosphatases, Roche). Then, pSTAT3 and STAT3 expression were analyzed by western blotting.

Compound	amount of HSP70-exosomes released, dose-response (HCT116 cells)	number of exosomes at higher doses (HCT116 cells)	amount of HSP70-exosomes released, extent of increase (HCT116 cells)	other results
O=c1[nH]cc(F)c(=O)[nH]1 [5-fluorouracil]	increased with drug concentration	drastically decreased	greater	
N.N.[Cl][Pt][Cl] [cisplatin]	increased with drug concentration	drastically decreased		percentage of MDSC (Gr1+ CD11b+) in spleen (B16F10 tumors): 9+/−0.9%; amount of HSP70-exosomes released by B16F10 cancer cells (B16F10 cells): strongly increased; amount of HSP70-exosomes in the blood [1]: much stronger
COc1cccc2c1C(=O)c1c(O)c3c(c(O)c1C2=O)C[C@@](O)(C(=O)CO)C[C@@H]3O[C@H]1C[C@H](N)[C@H](O)[C@H](C)O1 [doxorubicin]	increased with drug concentration	drastically decreased	lesser	
Nc1ccn([C@@H]2O[C@H](CO)[C@@H](O)C2(F)F)c(=O)n1 [gemcitabine]			induce an increase in the amount of HSP70-exosomes	
O=C1[O][Pt]2([NH][C@@H]3CCCC[C@H]3[NH]2)[O]C1=O [oxaliplatin]			greater	
CC(=O)O[C@H]1C(=O)[C@@]2(C)[C@H]([C@H](OC(=O)c3ccccc3)[C@]3(O)C[C@H](OC(=O)[C@H](O)[C@@H](NC(=O)c4ccccc4)c4ccccc4)C(C)=C1C3(C)C)[C@]1(OC(C)=O)CO[C@@H]1C[C@@H]2O [paclitaxel]			induce an increase in the amount of HSP70-exosomes	
YCAYYSPRHKTTF (Synthetic Aptamer A17) [reference compound]				STAT3 phosphorylation (activation) in MSC2 induced by tumor-derived exosomes (MSC2 cells): did not interfere
